Structures are written as SMILES.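 Following 48 hours of exposure in 96-well plates, responses at five concentrations were used to interpolate endpoints linearly. At the GI50, growth is halved. TGI: concentration producing complete growth inhibition.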 Where a SMILES comes first, the peptide text is derived from it. The star is where a group is joined. Boc = CC(C)(C)OC(=O)*

The first test has as its system PC-3 prostate. The test is described as follows: NCI anticancer screen, dose series, 48 h.
Turning to `C/C(CC1C2CCCC1C2)=N\NC(N)=O` (stereo not given), the TGI is greater than 100 µM.
Regarding `c1ccc2sc(SCSc3nc4ccccc4s3)nc2c1`, the TGI is greater than 100 µM.
Same read-out and setting: the figure for `C1=CC2=CC=CC3c4nc5ccc6ccccc6c5nc4C(=C1)C23` (stereo not given) is greater than 100 µM; for `O=C(CCCN1CCC2(CC1)CC(=O)N(N1CCOCC1)C2=O)c1ccccc1` it is greater than 100 µM; for `COc1ccc(C(OCC2OC(n3cc(C)c(=O)[nH]c3=O)CC2n2cc(Cn3cc(F)c(=O)[nH]c3=O)nn2)(c2ccccc2)c2ccccc2)cc1` (stereo not given) it is 31.3 µM.
As for `CCN(CC)CCOc1ccc(N2C(=O)c3cc(OC)c(OC)cc3C2=O)cc1`, the TGI was greater than 100 µM.
The compound `O=C(N=Nc1cc(Cl)ccc1Cl)NNc1cc(Cl)ccc1Cl` had a TGI of 22.8 µM.
The compound `COc1ccc(C#CC(=O)O)c(OC)c1` registered a TGI greater than 100 µM.
Compound `CCOC(=O)NC(=S)NN(C)C1=NCC(C)(C)S1` had a TGI greater than 100 µM.
Same read-out and setting: then `O=C(CNc1ccccc1Cl)Nn1c(-c2ccccc2)nc2ccccc2c1=O`, with 99 µM; and `Cc1csc(-c2cn(C)c3c2C(=O)C(N)=CC3=O)n1`, with greater than 100 µM.
Same read-out and setting: then `C/C=C/C=C/c1nc(C#N)c(N)o1`, with greater than 100 µM.
Still for that read-out and setting: the figure for `O=c1c2ccccc2nc2[nH][nH]c(=S)n12` is greater than 100 µM; for `CC(C)(C)OC(=O)NCC(=O)NCC(=O)NCC(=O)NCC(=O)O` (Boc-GGGG-OH) it is greater than 100 µM; for `CC(C)COP(=O)(OCC(C)C)C(NS(=O)(=O)c1ccccc1)(C(F)(F)F)C(F)(F)F` it is 31.7 µM.
`N#C/C(=C\c1cc(Br)c(O)c(Br)c1)c1cccnc1`: the TGI came out at 69.7 µM.
Same read-out and setting: then `CC(O)C1CC1(CO)CNc1cc(Cl)nc(N)n1` (stereo not given), with greater than 100 µM; and `CN(C)Cc1cc(C(=O)/C=C/c2ccc(O)cc2)cc(CN(C)C)c1O`, with greater than 100 µM.

The next test concerns HT29 colon. Kind of test: NCI anticancer screen, dose series, 48 h.
Take `O=P(c1ccccc1)(c1ccccc1)N1O[C@@H](c2ccccc2)C=C[C@H]1c1ccccc1`: the TGI stood at 26.5 µM.
On the same count and under the same terms, the figure for `Cc1c2c(n(CCc3ccc(Cl)cc3)c1C)NN=C(C#N)S2(=O)=O` is greater than 100 µM; for `CCN(C(=S)N[C@@H](Cc1ccccc1)C(=O)N[C@@H](CC(C)C)C(=O)OC)c1ccccc1` it is greater than 100 µM.
As to `COc1ccc2cc(-c3ccc(-c4ccc(C(=N)N)s4)s3)ccc2c1`, the GI50 is 1720 nM and the TGI came out at 3.27 µM.
As for `C/C(CC1C2CCCC1C2)=N\NC(N)=O` (stereo not given), the TGI was greater than 100 µM.
Same read-out and setting: then `c1ccc2sc(SCSc3nc4ccccc4s3)nc2c1`, with greater than 100 µM; and `C1=CC2=CC=CC3c4nc5ccc6ccccc6c5nc4C(=C1)C23` (stereo not given), with greater than 100 µM; and `O=C(CCCN1CCC2(CC1)CC(=O)N(N1CCOCC1)C2=O)c1ccccc1`, with greater than 100 µM.
Compound `COc1ccc(C(OCC2OC(n3cc(C)c(=O)[nH]c3=O)CC2n2cc(Cn3cc(F)c(=O)[nH]c3=O)nn2)(c2ccccc2)c2ccccc2)cc1` (stereo not given) gave a TGI greater than 100 µM.
Consider `CCN(CC)CCOc1ccc(N2C(=O)c3cc(OC)c(OC)cc3C2=O)cc1`, for which the TGI was greater than 100 µM.
Regarding `O=C(N=Nc1cc(Cl)ccc1Cl)NNc1cc(Cl)ccc1Cl`, the TGI worked out at 37 µM.
On the same count and under the same terms, the figure for `COc1ccc(C#CC(=O)O)c(OC)c1` is greater than 100 µM; for `O=C(CNc1ccccc1Cl)Nn1c(-c2ccccc2)nc2ccccc2c1=O` it is greater than 10 µM; for `Cc1csc(-c2cn(C)c3c2C(=O)C(N)=CC3=O)n1` it is greater than 67.1 µM.
The same measure, in the same setting: the figure for `C/C=C/C=C/c1nc(C#N)c(N)o1` is greater than 100 µM; for `O=c1c2ccccc2nc2[nH][nH]c(=S)n12` it is greater than 100 µM.
As for `CC(C)(C)OC(=O)NCC(=O)NCC(=O)NCC(=O)NCC(=O)O` (Boc-GGGG-OH), the TGI was greater than 100 µM.
On to `CC(C)COP(=O)(OCC(C)C)C(NS(=O)(=O)c1ccccc1)(C(F)(F)F)C(F)(F)F`, for which the TGI was 25.4 µM.
Compound `N#C/C(=C\c1cc(Br)c(O)c(Br)c1)c1cccnc1` displayed a TGI greater than 100 µM.
`CC(O)C1CC1(CO)CNc1cc(Cl)nc(N)n1` (stereo not given): the TGI was greater than 100 µM.
On the same count and under the same terms, then `CN(C)Cc1cc(C(=O)/C=C/c2ccc(O)cc2)cc(CN(C)C)c1O`, with greater than 100 µM.

A further test has as its system MALME-3M melanoma. The test is described as follows: NCI anticancer screen, dose series, 48 h.
`O=P(c1ccccc1)(c1ccccc1)N1O[C@@H](c2ccccc2)C=C[C@H]1c1ccccc1` showed a TGI of 29.2 µM.
Same read-out and setting: then `Cc1c2c(n(CCc3ccc(Cl)cc3)c1C)NN=C(C#N)S2(=O)=O`, with greater than 100 µM; and `CCN(C(=S)N[C@@H](Cc1ccccc1)C(=O)N[C@@H](CC(C)C)C(=O)OC)c1ccccc1`, with greater than 100 µM.
`COc1ccc2cc(-c3ccc(-c4ccc(C(=N)N)s4)s3)ccc2c1`: the GI50 is 3.32 µM and the TGI worked out at 11.5 µM.
The compound `C/C(CC1C2CCCC1C2)=N\NC(N)=O` (stereo not given) gave a TGI greater than 100 µM.
`c1ccc2sc(SCSc3nc4ccccc4s3)nc2c1` registered a TGI greater than 100 µM.
Still for that read-out and setting: then `C1=CC2=CC=CC3c4nc5ccc6ccccc6c5nc4C(=C1)C23` (stereo not given), with greater than 100 µM; and `O=C(CCCN1CCC2(CC1)CC(=O)N(N1CCOCC1)C2=O)c1ccccc1`, with greater than 100 µM; and `COc1ccc(C(OCC2OC(n3cc(C)c(=O)[nH]c3=O)CC2n2cc(Cn3cc(F)c(=O)[nH]c3=O)nn2)(c2ccccc2)c2ccccc2)cc1` (stereo not given), with 31.8 µM.
On the same count and under the same terms, then `CCN(CC)CCOc1ccc(N2C(=O)c3cc(OC)c(OC)cc3C2=O)cc1`, with greater than 100 µM; and `O=C(N=Nc1cc(Cl)ccc1Cl)NNc1cc(Cl)ccc1Cl`, with 82.1 µM; and `COc1ccc(C#CC(=O)O)c(OC)c1`, with greater than 100 µM.
`C/C=C/C=C/c1nc(C#N)c(N)o1`: the TGI is greater than 100 µM.
In the case of `CC(C)(C)OC(=O)NCC(=O)NCC(=O)NCC(=O)NCC(=O)O` (Boc-GGGG-OH), the TGI is greater than 100 µM.
In turn, `CC(C)COP(=O)(OCC(C)C)C(NS(=O)(=O)c1ccccc1)(C(F)(F)F)C(F)(F)F` had a TGI of 32.4 µM.
On the same count and under the same terms, then `N#C/C(=C\c1cc(Br)c(O)c(Br)c1)c1cccnc1`, with 41.6 µM; and `CC(O)C1CC1(CO)CNc1cc(Cl)nc(N)n1` (stereo not given), with greater than 100 µM.

The subject of the next test is K-562 leukemia. Kind of test: NCI anticancer screen, dose series, 48 h.
As for `O=P(c1ccccc1)(c1ccccc1)N1O[C@@H](c2ccccc2)C=C[C@H]1c1ccccc1`, the TGI came to 80.1 µM.
`Cc1c2c(n(CCc3ccc(Cl)cc3)c1C)NN=C(C#N)S2(=O)=O` came in with a TGI greater than 100 µM.
Same read-out and setting: then `CCN(C(=S)N[C@@H](Cc1ccccc1)C(=O)N[C@@H](CC(C)C)C(=O)OC)c1ccccc1`, with greater than 100 µM; and `c1ccc2sc(SCSc3nc4ccccc4s3)nc2c1`, with greater than 100 µM; and `C1=CC2=CC=CC3c4nc5ccc6ccccc6c5nc4C(=C1)C23` (stereo not given), with greater than 100 µM.
In the case of `O=C(CCCN1CCC2(CC1)CC(=O)N(N1CCOCC1)C2=O)c1ccccc1`, the TGI was greater than 100 µM.
`CCN(CC)CCOc1ccc(N2C(=O)c3cc(OC)c(OC)cc3C2=O)cc1` displayed a TGI greater than 100 µM.
The same measure, in the same setting: then `O=C(N=Nc1cc(Cl)ccc1Cl)NNc1cc(Cl)ccc1Cl`, with 54.6 µM; and `COc1ccc(C#CC(=O)O)c(OC)c1`, with greater than 100 µM.
Same read-out and setting: the figure for `CCOC(=O)NC(=S)NN(C)C1=NCC(C)(C)S1` is greater than 100 µM.
Compound `O=C(CNc1ccccc1Cl)Nn1c(-c2ccccc2)nc2ccccc2c1=O` had a TGI of 97.2 µM.
For `Cc1csc(-c2cn(C)c3c2C(=O)C(N)=CC3=O)n1`, the TGI is greater than 100 µM.
In the case of `C/C=C/C=C/c1nc(C#N)c(N)o1`, the TGI was greater than 100 µM.
The same measure, in the same setting: the figure for `O=c1c2ccccc2nc2[nH][nH]c(=S)n12` is greater than 100 µM; for `CC(C)(C)OC(=O)NCC(=O)NCC(=O)NCC(=O)NCC(=O)O` (Boc-GGGG-OH) it is greater than 100 µM; for `CC(C)COP(=O)(OCC(C)C)C(NS(=O)(=O)c1ccccc1)(C(F)(F)F)C(F)(F)F` it is greater than 100 µM.
Still for that read-out and setting: the figure for `N#C/C(=C\c1cc(Br)c(O)c(Br)c1)c1cccnc1` is greater than 100 µM.
Compound `CC(O)C1CC1(CO)CNc1cc(Cl)nc(N)n1` (stereo not given) registered a TGI greater than 100 µM.
The compound `CN(C)Cc1cc(C(=O)/C=C/c2ccc(O)cc2)cc(CN(C)C)c1O` displayed a TGI greater than 100 µM.

The next test relates to SR leukemia. Kind of test: NCI anticancer screen, dose series, 48 h.
In turn, `O=P(c1ccccc1)(c1ccccc1)N1O[C@@H](c2ccccc2)C=C[C@H]1c1ccccc1` registered a TGI of 50.4 µM.
For the compound `Cc1c2c(n(CCc3ccc(Cl)cc3)c1C)NN=C(C#N)S2(=O)=O`, the TGI is greater than 100 µM.
`CCN(C(=S)N[C@@H](Cc1ccccc1)C(=O)N[C@@H](CC(C)C)C(=O)OC)c1ccccc1`: the TGI was determined as 61.6 µM.
Consider `COc1ccc2cc(-c3ccc(-c4ccc(C(=N)N)s4)s3)ccc2c1`, for which the GI50 was 851 nM and the TGI turned out to be 3.38 µM.
The compound `C/C(CC1C2CCCC1C2)=N\NC(N)=O` (stereo not given) gave a TGI greater than 100 µM.
Same read-out and setting: the figure for `c1ccc2sc(SCSc3nc4ccccc4s3)nc2c1` is greater than 100 µM.
`C1=CC2=CC=CC3c4nc5ccc6ccccc6c5nc4C(=C1)C23` (stereo not given) showed a TGI greater than 100 µM.
Same read-out and setting: the figure for `O=C(CCCN1CCC2(CC1)CC(=O)N(N1CCOCC1)C2=O)c1ccccc1` is greater than 100 µM.
In turn, `COc1ccc(C(OCC2OC(n3cc(C)c(=O)[nH]c3=O)CC2n2cc(Cn3cc(F)c(=O)[nH]c3=O)nn2)(c2ccccc2)c2ccccc2)cc1` (stereo not given) gave a TGI of 8.84 µM.
In turn, `CCN(CC)CCOc1ccc(N2C(=O)c3cc(OC)c(OC)cc3C2=O)cc1` registered a TGI greater than 100 µM.
The same measure, in the same setting: the figure for `O=C(N=Nc1cc(Cl)ccc1Cl)NNc1cc(Cl)ccc1Cl` is greater than 100 µM.
Turning to `COc1ccc(C#CC(=O)O)c(OC)c1`, the TGI was greater than 100 µM.
`CCOC(=O)NC(=S)NN(C)C1=NCC(C)(C)S1` yielded a TGI greater than 100 µM.
`O=C(CNc1ccccc1Cl)Nn1c(-c2ccccc2)nc2ccccc2c1=O` registered a TGI of 97.6 µM.
Same read-out and setting: the figure for `Cc1csc(-c2cn(C)c3c2C(=O)C(N)=CC3=O)n1` is 19.5 µM.
Same read-out and setting: the figure for `C/C=C/C=C/c1nc(C#N)c(N)o1` is greater than 100 µM; for `O=c1c2ccccc2nc2[nH][nH]c(=S)n12` it is greater than 100 µM.
In the case of `CC(C)(C)OC(=O)NCC(=O)NCC(=O)NCC(=O)NCC(=O)O` (Boc-GGGG-OH), the TGI is greater than 100 µM.
With `CC(C)COP(=O)(OCC(C)C)C(NS(=O)(=O)c1ccccc1)(C(F)(F)F)C(F)(F)F`, the TGI is 38.1 µM.
Same read-out and setting: the figure for `N#C/C(=C\c1cc(Br)c(O)c(Br)c1)c1cccnc1` is 76.5 µM; for `CC(O)C1CC1(CO)CNc1cc(Cl)nc(N)n1` (stereo not given) it is greater than 100 µM; for `CN(C)Cc1cc(C(=O)/C=C/c2ccc(O)cc2)cc(CN(C)C)c1O` it is 69.5 µM.

(Values after PubChem BioAssay (NCI).)
